Test results: patent US11945822B2, “Pyrazolo-triazine and/or pyrazolo-pxrimidine derivatives as selective inhibitor of cyclin dependent kinase” (QURIENT CO., LTD., priority 2018, dated 2024)

system: H460; experiment: Cellular H460 viability assay (CellTiter-Glo, 72 hours); assay type: cell-based; details: Homo sapiens, NCI-H460
Summary of the method: (§1)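 Luminescent ATP read-out (CellTiter-Glo) after 72 h compound exposure at 37 °C/5% CO2; duplicate wells; vehicle control DMSO <0.1% final; seeding density set per cell line.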

Row | IC50 [µM] | Structure (SMILES)
1 | < 1 | CC(C)c1cnn2c(NCc3ccccc3-c3ncc4ccccc4n3)nc(N3CCC(N)CC3)nc12 [Compound 77]
2 | < 1 | CC(C)c1cnn2c(NCc3ccccc3-c3cc4c(F)cccc4[nH]3)nc(N3CCC(N)CC3)nc12 [Compound 112]

system: RPMI-8226; experiment: Cellular RPMI-8226 viability assay (CellTiter-Glo, 72 hours); assay type: cell-based; details: Homo sapiens
Summary of the method: as §1

Row | IC50 [µM] | Structure (SMILES)
3 | < 1 | CC(C)c1cnn2c(NCc3ccccc3-c3ncc4ccccc4n3)nc(N3CCC(N)CC3)nc12 [Compound 77]
4 | < 1 | CC(C)c1cnn2c(NCc3ccccc3-c3cc4c(F)cccc4[nH]3)nc(N3CCC(N)CC3)nc12 [Compound 112]

biological target: T1, CDK5/p25 (Homo sapiens, UniProt Q00535); experiment: Enzymatic assay for CDK5 (FRET based LANCE Ultra kinase assay); assay type: biochemical; details: read-out: CDK5 enzymatic activity (IC50 activity range)
T1 construct: purchased Invitrogen PR8543B
T1 sequence (Q00535 whole entry): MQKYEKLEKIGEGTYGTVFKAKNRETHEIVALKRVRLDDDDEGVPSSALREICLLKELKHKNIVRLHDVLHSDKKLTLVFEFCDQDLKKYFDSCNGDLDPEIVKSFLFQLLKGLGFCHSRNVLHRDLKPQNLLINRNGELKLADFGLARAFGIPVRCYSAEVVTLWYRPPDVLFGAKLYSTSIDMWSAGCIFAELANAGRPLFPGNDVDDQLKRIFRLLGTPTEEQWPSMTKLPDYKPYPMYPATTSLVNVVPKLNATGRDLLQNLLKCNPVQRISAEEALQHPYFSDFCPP
T1 sequence (Q15078 99-307 partner limits assumed): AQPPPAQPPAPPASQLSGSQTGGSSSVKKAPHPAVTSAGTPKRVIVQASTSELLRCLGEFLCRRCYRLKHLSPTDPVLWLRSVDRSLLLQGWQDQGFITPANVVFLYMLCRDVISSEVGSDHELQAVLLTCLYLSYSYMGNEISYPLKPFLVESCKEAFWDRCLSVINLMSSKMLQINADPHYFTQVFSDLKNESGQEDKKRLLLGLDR
Summary of the method: (§2)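 LANCE Ultra TR-FRET: ULight-MBP peptide (68 nM) with ATP at Km, […], 60 min at 23° C. EDTA plus Eu-anti-phospho-MBP added, another 60 min, then 665/615 nm emission read. Compounds tested as 8-dose 4-fold DMSO dilutions.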

Row | IC50 [µM] | Structure (SMILES)
5 | > 1 | CC(C)c1cnn2c(NCc3c(Cl)cccc3-n3ccc(C(C)(C)O)n3)nc(Nc3cccc4[nH]ccc34)nc12 [Compound 276]

same assay, conditions: read-out: CDK5 enzymatic activity (IC50 range)

Row | IC50 [µM] | Structure (SMILES)
6 | 0.1 to 1 | CC(C)c1cnn2c(NCc3ccccc3-c3ncc4ccccc4n3)nc(N3CCC(N)CC3)nc12 [Compound 77]
7 | < 0.1 | CC(C)c1cnn2c(NCc3ccccc3-c3cc4c(F)cccc4[nH]3)nc(N3CCC(N)CC3)nc12 [Compound 112]

biological target: T2, CDK7/Cyclin H/MNAT1 (Homo sapiens, UniProt P50613); experiment: Enzymatic assay for CDK7 (FRET based LANCE Ultra kinase assay); assay type: biochemical; details: CDK1/CDK7
T2 construct: purchased Invitrogen PR6749B
T2 sequence (P50613 whole entry): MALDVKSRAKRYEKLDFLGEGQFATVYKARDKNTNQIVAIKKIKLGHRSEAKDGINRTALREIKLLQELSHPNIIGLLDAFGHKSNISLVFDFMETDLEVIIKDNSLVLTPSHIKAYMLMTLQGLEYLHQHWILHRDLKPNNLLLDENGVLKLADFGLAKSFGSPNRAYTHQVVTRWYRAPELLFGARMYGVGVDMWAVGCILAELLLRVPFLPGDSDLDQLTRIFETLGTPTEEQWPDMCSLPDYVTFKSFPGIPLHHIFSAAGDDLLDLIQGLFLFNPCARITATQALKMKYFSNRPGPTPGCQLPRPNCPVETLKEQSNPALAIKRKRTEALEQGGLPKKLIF
T2 sequence (P51946 whole entry partner): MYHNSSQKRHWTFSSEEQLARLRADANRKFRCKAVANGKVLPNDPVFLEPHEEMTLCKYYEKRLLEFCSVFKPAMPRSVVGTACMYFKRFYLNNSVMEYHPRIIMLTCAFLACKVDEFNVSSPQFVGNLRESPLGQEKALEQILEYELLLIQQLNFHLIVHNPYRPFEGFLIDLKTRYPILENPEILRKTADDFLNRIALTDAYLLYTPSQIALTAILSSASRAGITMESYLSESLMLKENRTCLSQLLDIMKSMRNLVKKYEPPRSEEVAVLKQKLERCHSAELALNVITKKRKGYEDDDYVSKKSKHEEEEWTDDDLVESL
T2 sequence (P51948 whole entry partner): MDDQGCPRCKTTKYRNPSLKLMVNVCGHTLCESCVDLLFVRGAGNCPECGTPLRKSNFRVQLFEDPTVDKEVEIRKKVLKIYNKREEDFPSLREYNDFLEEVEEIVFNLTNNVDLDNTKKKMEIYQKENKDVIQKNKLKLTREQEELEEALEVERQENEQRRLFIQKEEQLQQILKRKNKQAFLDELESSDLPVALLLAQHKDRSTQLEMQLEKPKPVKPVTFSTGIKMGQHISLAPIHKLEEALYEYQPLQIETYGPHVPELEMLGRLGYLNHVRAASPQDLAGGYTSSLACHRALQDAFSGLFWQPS
Summary of the method: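 Inhibition was measured at Km ATP by time-resolved FRET between a Eu anti-phospho antibody and a phosphorylated ULight peptide. The enzyme was the purified CDK7/cyclin complex, and data were curve-fitted.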

Row | Structure (SMILES) | CDK1/CDK7: Selectivity of CDK7 inhibition over CDK1 inhibition
8 | CC(C)c1cnn2c(NCc3c(Cl)cccc3-n3ccc(C(C)(C)O)n3)nc(Nc3cccc4[nH]ccc34)nc12 [Compound 276] | B (B=less than 200 fold, but greater than 20 fold)

same assay, conditions: CDK2/CDK7

Row | Structure (SMILES) | CDK2/CDK7: Selectivity of CDK7 inhibition over CDK2 inhibition
9 | CC(C)c1cnn2c(NCc3c(Cl)cccc3-n3ccc(C(C)(C)O)n3)nc(Nc3cccc4[nH]ccc34)nc12 [Compound 276] | B (B=less than 200 fold, but greater than 20 fold)

same assay, conditions: CDK5/CDK7

Row | Structure (SMILES) | CDK5/CDK7: Selectivity of CDK7 inhibition over CDK5 inhibition
10 | CC(C)c1cnn2c(NCc3c(Cl)cccc3-n3ccc(C(C)(C)O)n3)nc(Nc3cccc4[nH]ccc34)nc12 [Compound 276] | B (B=less than 200 fold, but greater than 20 fold)

same assay, conditions: CDK7 over CDK1

Row | Structure (SMILES) | CDK1/CDK7: Selectivity of CDK7 inhibition over CDK1 inhibition
11 | CC(C)c1cnn2c(NCc3ccccc3-c3ncc4ccccc4n3)nc(N3CCC(N)CC3)nc12 [Compound 77] | A (A=greater than 200 fold)
12 | CC(C)c1cnn2c(NCc3ccccc3-c3cc4c(F)cccc4[nH]3)nc(N3CCC(N)CC3)nc12 [Compound 112] | B (B=less than 200 fold, but greater than 20 fold)

same assay, conditions: CDK7 over CDK2

Row | Structure (SMILES) | CDK2/CDK7: Selectivity of CDK7 inhibition over CDK2 inhibition
13 | CC(C)c1cnn2c(NCc3ccccc3-c3ncc4ccccc4n3)nc(N3CCC(N)CC3)nc12 [Compound 77] | B (B=less than 200 fold, but greater than 20 fold)
14 | CC(C)c1cnn2c(NCc3ccccc3-c3cc4c(F)cccc4[nH]3)nc(N3CCC(N)CC3)nc12 [Compound 112] | B (B=less than 200 fold, but greater than 20 fold)

same assay, conditions: CDK7 over CDK5

Row | Structure (SMILES) | CDK5/CDK7: Selectivity of CDK7 inhibition over CDK5 inhibition
15 | CC(C)c1cnn2c(NCc3ccccc3-c3ncc4ccccc4n3)nc(N3CCC(N)CC3)nc12 [Compound 77] | B (B=less than 200 fold, but greater than 20 fold)
16 | CC(C)c1cnn2c(NCc3ccccc3-c3cc4c(F)cccc4[nH]3)nc(N3CCC(N)CC3)nc12 [Compound 112] | C (C=less than 20 fold)

same assay, conditions: read-out: CDK7 enzymatic activity (IC50 activity range)

Row | IC50 [µM] | Structure (SMILES)
17 | > 1 | CC(C)c1cnn2c(NCc3c(Cl)cccc3-n3ccc(C(C)(C)O)n3)nc(Nc3cccc4[nH]ccc34)nc12 [Compound 276]

same assay, conditions: read-out: CDK7 enzymatic activity (IC50 range)

Row | IC50 [µM] | Structure (SMILES)
18 | < 0.1 | CC(C)c1cnn2c(NCc3ccccc3-c3ncc4ccccc4n3)nc(N3CCC(N)CC3)nc12 [Compound 77]
19 | < 0.1 | CC(C)c1cnn2c(NCc3ccccc3-c3cc4c(F)cccc4[nH]3)nc(N3CCC(N)CC3)nc12 [Compound 112]

system: MV4-11; experiment: Cellular MV4-11 viability assay (CellTiter-Glo, 72 hours); assay type: cell-based; details: Homo sapiens
Summary of the method: as §1

Row | IC50 [µM] | Structure (SMILES)
20 | < 1 | CC(C)c1cnn2c(NCc3c(Cl)cccc3-n3ccc(C(C)(C)O)n3)nc(Nc3cccc4[nH]ccc34)nc12 [Compound 276]
21 | < 1 | CC(C)c1cnn2c(NCc3ccccc3-c3ncc4ccccc4n3)nc(N3CCC(N)CC3)nc12 [Compound 77]
22 | < 1 | CC(C)c1cnn2c(NCc3ccccc3-c3cc4c(F)cccc4[nH]3)nc(N3CCC(N)CC3)nc12 [Compound 112]

system: MOLT-4; experiment: Cellular MOLT-4 viability assay (CellTiter-Glo, 72 hours); assay type: cell-based; details: Homo sapiens, MOLT4 viability assay
Summary of the method: as §1

Row | IC50 [µM] | Structure (SMILES)
23 | 1 to 10 | CC(C)c1cnn2c(NCc3ccccc3-c3ncc4ccccc4n3)nc(N3CCC(N)CC3)nc12 [Compound 77]
24 | < 1 | CC(C)c1cnn2c(NCc3ccccc3-c3cc4c(F)cccc4[nH]3)nc(N3CCC(N)CC3)nc12 [Compound 112]

system: A2780; experiment: Cellular A2780 viability assay (CellTiter-Glo, 72 hours); assay type: cell-based; details: Homo sapiens
Excerpt: Human T-cell acute lymphoblastic leukemia cell line, MOLT-4 (ATCC, Cat #CRL-1582), Human multiple myeloma cell line, RPMI-8226 (Invitrogen, Cat #22400-089) and MM.1S (ATCC, Cat #CRL-2974), NSCLC (Non-small cell lung cancer) cell line H460 (ATCC, Cat #HTB-177), Human colon colorectal carcinoma cell line HCT116 (ATCC, Cat #CCL-247), Human acute monocytic leukemia cell line MV4-11 (ATCC, Cat #CRL-9591), OVCAR-3 (ATCC, Cat #HTB-161) and A2780 (ECACC, Cat #93112519) were obtained from ATCC. Cells were grown in RPMI-1640 media (Invitrogen, Cat #22400-089) supplemented with 10% FBS (Invitrogen, Cat #10099141) and 1% penicillin/streptomycin (Invitrogen, Cat #15070063) and cultured at 37° C., 5% CO2 in a humidified chamber. All cell lines were routinely tested for mycoplasma.
The effect of the CDK7 inhibitor to inhibit the growth of target cancer cells was evaluated through the 72 hours time period of viability assay. Briefly, the candidate cell line ware plated in 96 well plate at the following density of cells respectively. 1×10^4 cells/well for MOLT-4, RPMI-8226, MV4-11 and MM.1S, 5×10^3 for H460, HCT116 and OVCAR-3 and IX 10^3 for A2780. After 24 hours, the cells were treated with various concentrations of the compound (ranging from 0.0015 uM to 10 uM). DMSO solvent without compound served as a control and final DMSO concentration less than 0.1%. After 72 hours of incubation at 37° C., 5% CO2 incubator, cells were analyzed for the viability using the CellTiter-Glo Luminescent Cell Viability Assay (Promega, Cat #G7570). All viability assays were performed in duplicate and Luminescence was read using an Envision (Perkin Elmer, USA). Data was analyzed using XLfit software.

Row | IC50 [µM] | Structure (SMILES)
25 | 1 to 10 | CC(C)c1cnn2c(NCc3c(Cl)cccc3-n3ccc(C(C)(C)O)n3)nc(Nc3cccc4[nH]ccc34)nc12 [Compound 276]

biological target: T3, CDK1/Cyclin B (Homo sapiens, UniProt P06493); experiment: Enzymatic assay for CDK1 (FRET based LANCE Ultra kinase assay); assay type: biochemical; details: read-out: CDK1 enzymatic activity (IC50 activity range)
T3 construct: purchased Invitrogen PR4768C
T3 sequence (P06493 whole entry): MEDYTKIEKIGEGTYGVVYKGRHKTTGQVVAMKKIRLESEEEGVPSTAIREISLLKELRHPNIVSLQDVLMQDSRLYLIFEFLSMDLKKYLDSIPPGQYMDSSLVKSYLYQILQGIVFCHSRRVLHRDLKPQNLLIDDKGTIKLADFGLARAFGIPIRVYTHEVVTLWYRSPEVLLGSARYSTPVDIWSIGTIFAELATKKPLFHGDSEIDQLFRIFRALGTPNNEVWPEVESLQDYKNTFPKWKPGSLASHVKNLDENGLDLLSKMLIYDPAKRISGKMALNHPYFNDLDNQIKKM
T3 sequence (P14635 whole entry partner): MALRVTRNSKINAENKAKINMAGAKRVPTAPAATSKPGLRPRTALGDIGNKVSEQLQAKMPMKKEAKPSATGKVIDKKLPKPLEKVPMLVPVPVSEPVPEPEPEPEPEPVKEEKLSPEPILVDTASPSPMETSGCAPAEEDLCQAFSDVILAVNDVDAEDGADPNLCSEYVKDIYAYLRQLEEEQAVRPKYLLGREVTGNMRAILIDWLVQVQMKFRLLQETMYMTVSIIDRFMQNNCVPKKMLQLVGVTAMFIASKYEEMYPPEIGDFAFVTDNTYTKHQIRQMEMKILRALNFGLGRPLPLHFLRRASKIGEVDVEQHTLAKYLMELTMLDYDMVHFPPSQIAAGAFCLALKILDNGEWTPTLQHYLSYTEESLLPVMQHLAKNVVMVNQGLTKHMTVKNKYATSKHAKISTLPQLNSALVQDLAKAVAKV
Summary of the method: as §2

Row | IC50 [µM] | Structure (SMILES)
26 | > 1 | CC(C)c1cnn2c(NCc3c(Cl)cccc3-n3ccc(C(C)(C)O)n3)nc(Nc3cccc4[nH]ccc34)nc12 [Compound 276]

same assay, conditions: read-out: CDK1 enzymatic activity (IC50 range)

Row | IC50 [µM] | Structure (SMILES)
27 | 0.1 to 1 | CC(C)c1cnn2c(NCc3ccccc3-c3ncc4ccccc4n3)nc(N3CCC(N)CC3)nc12 [Compound 77]
28 | 0.1 to 1 | CC(C)c1cnn2c(NCc3ccccc3-c3cc4c(F)cccc4[nH]3)nc(N3CCC(N)CC3)nc12 [Compound 112]

system: HCT116; experiment: Cellular HCT116 viability assay (CellTiter-Glo, 72 hours); assay type: cell-based; details: Homo sapiens, HCT-116
Summary of the method: as §1

Row | IC50 [µM] | Structure (SMILES)
29 | < 1 | CC(C)c1cnn2c(NCc3ccccc3-c3cc4c(F)cccc4[nH]3)nc(N3CCC(N)CC3)nc12 [Compound 112]

biological target: T4, CDK2/Cyclin A (Homo sapiens, UniProt P24941); experiment: Enzymatic assay for CDK2 (FRET based LANCE Ultra kinase assay); assay type: biochemical; details: read-out: CDK2 enzymatic activity (IC50 activity range)
T4 construct: purchased Invitrogen PV6290
Summary of the method: as §2

Row | IC50 [µM] | Structure (SMILES)
30 | > 1 | CC(C)c1cnn2c(NCc3c(Cl)cccc3-n3ccc(C(C)(C)O)n3)nc(Nc3cccc4[nH]ccc34)nc12 [Compound 276]

same assay, conditions: read-out: CDK2 enzymatic activity (IC50 range)

Row | IC50 [µM] | Structure (SMILES)
31 | 0.1 to 1 | CC(C)c1cnn2c(NCc3ccccc3-c3ncc4ccccc4n3)nc(N3CCC(N)CC3)nc12 [Compound 77]
32 | 0.1 to 1 | CC(C)c1cnn2c(NCc3ccccc3-c3cc4c(F)cccc4[nH]3)nc(N3CCC(N)CC3)nc12 [Compound 112]
